Experimental data: US10449175B2, “Rinse-off chemical mousse containing benzoyl peroxide” (GALDERMA RESEARCH & DEVELOPMENT, priority 2014, dated 2019)

Test: Stability over time of foaming surfactants in formulation intermediate B with high sodium bicarbonate
Assay type: physicochemical
Details: incorporated in formulation intermediate B, high concentration of sodium bicarbonate
Description: The applicant company has known how to select a foaming surfactant which is stable over time in the presence of a high concentration of sodium bicarbonate. The following surfactants were tested in the mixture: Sodium C14-C16 Olefin Sulfonate sold by Clariant under the name Hostapur® OSB or else Hostapur® OS Liq but also Nansa® LSS 495-H sold by Huntsman, Rodacal LSS 80 RPB from Rhodia, BIO-Terge® AS-90 beads from Stepan, Sodium Cocoyl Glycinate sold by Clariant under the name Hostapon® SG, Sodium Cocoyl Isethionate sold by Clariant under the name Hostapon® SCI85 G, Sodium Lauroyl Methyl Isethionate sold by Innospec under the name Iselux® LG, Decyl Glucoside sold by Cognis under the name Plantacare® 2000 Up, Zinc Coceth Sulfate sold by Zschimmer & Schwarz under the name Zetesol® Zn, Glyceryl Monolaurate sold by Rossow under the name POEM® DL 100, and Disodium PEG-5 Laurylcitrate Sulfosuccinate sold by Evonik under the name Rewopol SB C55®.

## Sodium C14-16 Olefin Sulfonate
  retention of foaming and organoleptic properties (color, odor): retained its foaming properties and its organoleptic properties
